Test results as given in patent publication US9707269B2, “Sugar compositions for treating hemophilia A and/or von Willebrand disease” (CSL Behring GmbH, priority 2012, dated 2017).
Entries after “also recorded” stand apart in the source; their conditions may differ.

Columns and labels:
rhASGPR [1] = molecular target: T1, rhASGPR (Homo sapiens, UniProt P07306); experiment: SPR inhibition of ASF binding to rhASGPR by monosaccharides; conditions: in the presence of the monosaccharide, FIG. 11
T1 construct: The extracellular domains of receptor proteins were acquired from R&D Systems (Wiesbaden, Germany); purchased R&D Systems (Wiesbaden, Germany)
T1 sequence (P07306 62-291 limits assumed): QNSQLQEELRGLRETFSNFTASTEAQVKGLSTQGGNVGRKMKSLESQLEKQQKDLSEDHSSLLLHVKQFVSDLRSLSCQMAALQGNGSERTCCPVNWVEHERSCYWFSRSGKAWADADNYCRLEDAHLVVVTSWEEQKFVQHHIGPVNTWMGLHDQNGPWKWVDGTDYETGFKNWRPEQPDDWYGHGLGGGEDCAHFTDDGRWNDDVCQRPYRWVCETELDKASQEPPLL
Experimental: (§1) SPR technology (Biacore T200, GE Healthcare Biosciences, Uppsala, Sweden) was applied to evaluate mechanisms of realtime biomolecular interactions between VWF, receptor-blocking agents and clearance receptor candidates. The interaction experiments were performed at a flow cell temperature of +25° C. by applying running buffer containing 10 mM HEPES, 150 mM NaCl, 5 mM CaCl2 and 0.05% Tween-20 at pH 7.4, which was also used as sample dilution buffer. Reagents and buffer stock solutions were purchased from GE Healthcare Biosciences (Uppsala, Sweden). The extracellular domains of receptor proteins were acquired from R&D Systems (Wiesbaden, Germany). The ligands were captured on Series S Sensor […] pretreated according to the manufacturer's instructions. The receptor proteins were covalently immobilized through free amine groups to the carboxymethylated dextran matrix by applying the amine coupling kit according to the manufacturer protocol. A blank flow cell without immobilized protein was included as a reference surface on the chip for bulk shift and nonspecific binding changes.
(§2) Increasing concentrations of both ASF and fetuin ranging from 10,240 to 10 nM were prepared as a 2 fold serial dilution series in running buffer and sequentially injected across the chip surface at 25 μL/min in order to characterize protein-ligand interaction. […]
Kinetic data were analyzed using Biacore T200 Evaluation Software Version 1.0 (GE Healthcare Biosciences, Uppsala, Sweden). An interaction of the analyte with the ligand was detected by an increase in accumulating mass and specific binding was identified by subtracting the binding response recorded from the control surface, followed by subtracting an average of the buffer blank injections. A report point was positioned 20 seconds after the end of sample injection and was evaluated as representative for a stable protein-ligand interaction, which was of interest. […] Furthermore, the response was calculated relative to the baseline in each case. […]

clearance receptors = experiment: Inhibition of pd VWF monomer interaction with clearance receptors by monosaccharides (Example 8); assay type: binding; conditions: in the presence of monosaccharides; example without data
Text: According to example 7, the interaction of pd VWF monomers with clearance receptors mentioned earlier is inhibited in the in the presence of monosaccharides such as galactose, fucose and N-acetylgalactosamine.

[2] = system: clearance receptor candidates; experiment: Interaction of pd VWF multimers with clearance receptor candidates and its inhibition (Example 10); assay type: binding; conditions: example without data; for inhibition of binding of pd VWF multimers to clearance receptor candidates: in the presence of ASF or monosaccharides
Text: According to Example 9, pd VWF multimers interact with clearance receptor candidates mentioned earlier. In addition, binding is inhibited in the presence of ASF or monosaccharides such as galactose, fucose and N-acetylgalactosamine.

rhASGPR [3] = molecular target: T1, rhASGPR; experiment: SPR binding to immobilized clearance receptor rhASGPR; conditions: 25 °C, 5 mM CaCl2, pH 7.4, FIGS. 9 and 10
Experimental: SPR technology (Biacore T200, GE Healthcare Biosciences, Uppsala, Sweden) was applied to evaluate mechanisms of realtime biomolecular interactions between VWF, receptor-blocking agents and clearance receptor candidates. The interaction experiments were performed at a flow cell temperature of +25° C. by applying running buffer containing 10 mM HEPES, 150 mM NaCl, 5 mM CaCl2 and 0.05% Tween-20 at pH 7.4, which was also used as sample dilution buffer. Reagents and buffer stock solutions were purchased from GE Healthcare Biosciences (Uppsala, Sweden). The extracellular domains of receptor proteins were acquired from R&D Systems (Wiesbaden, Germany). […]
(§3) Kinetic data were analyzed using Biacore T200 Evaluation Software Version 1.0 (GE Healthcare Biosciences, Uppsala, Sweden). An interaction of the analyte with the ligand was detected by an increase in accumulating mass and specific binding was identified by subtracting the binding response recorded from the control surface, followed by subtracting an average of the buffer blank injections. A report point was positioned 20 seconds after the end of sample injection and was evaluated as representative for a stable protein-ligand interaction, which was of interest. […] Furthermore, the response was calculated relative to the baseline in each case.

rhCLEC4M = molecular target: T2, rhCLEC4M (Homo sapiens, UniProt Q9H2X3); experiment: SPR binding to immobilized clearance receptor rhCLEC4M; conditions: 25 °C, 5 mM CaCl2, pH 7.4, FIGS. 9 and 10
T2 construct: The extracellular domains of receptor proteins were acquired from R&D Systems (Wiesbaden, Germany); purchased R&D Systems (Wiesbaden, Germany)
T2 sequence (Q9H2X3 71-399 limits assumed): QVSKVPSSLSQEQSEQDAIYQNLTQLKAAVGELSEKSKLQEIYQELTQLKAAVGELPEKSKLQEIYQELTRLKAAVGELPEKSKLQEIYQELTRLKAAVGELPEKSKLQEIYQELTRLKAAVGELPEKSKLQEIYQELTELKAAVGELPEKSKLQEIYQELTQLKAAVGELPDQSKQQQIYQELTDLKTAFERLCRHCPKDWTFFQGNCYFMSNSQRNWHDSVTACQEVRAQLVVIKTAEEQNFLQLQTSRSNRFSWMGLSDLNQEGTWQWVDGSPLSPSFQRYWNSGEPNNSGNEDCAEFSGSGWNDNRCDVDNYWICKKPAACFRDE
Experimental: as §1, §2, §3

rmCLEC4F = molecular target: T3, rmCLEC4F (Mus musculus, UniProt P70194); experiment: SPR binding to immobilized clearance receptor rmCLEC4F; conditions: 25 °C, 5 mM CaCl2, pH 7.4, FIGS. 9 and 10
T3 construct: The extracellular domains of receptor proteins were acquired from R&D Systems (Wiesbaden, Germany); purchased R&D Systems (Wiesbaden, Germany)
T3 sequence (P70194 70-548 limits assumed): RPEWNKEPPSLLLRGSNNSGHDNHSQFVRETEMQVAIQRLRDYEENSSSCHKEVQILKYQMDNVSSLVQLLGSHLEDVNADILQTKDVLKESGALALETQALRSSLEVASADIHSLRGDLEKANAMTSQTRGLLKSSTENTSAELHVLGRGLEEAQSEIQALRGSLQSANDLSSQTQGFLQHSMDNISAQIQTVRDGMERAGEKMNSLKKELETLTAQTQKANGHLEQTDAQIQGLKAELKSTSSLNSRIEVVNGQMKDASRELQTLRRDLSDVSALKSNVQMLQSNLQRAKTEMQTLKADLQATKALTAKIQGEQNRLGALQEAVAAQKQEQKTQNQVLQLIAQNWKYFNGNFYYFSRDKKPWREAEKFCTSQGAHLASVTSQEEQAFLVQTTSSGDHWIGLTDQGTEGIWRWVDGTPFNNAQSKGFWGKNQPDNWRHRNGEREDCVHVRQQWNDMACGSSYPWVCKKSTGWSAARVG
Experimental: as §1, §2, §3

rhCLEC10A = molecular target: T4, rhCLEC10A (Homo sapiens, UniProt Q8IUN9); experiment: SPR binding to immobilized clearance receptor rhCLEC10A; conditions: 25 °C, 5 mM CaCl2, pH 7.4, FIGS. 9 and 10
T4 construct: The extracellular domains of receptor proteins were acquired from R&D Systems (Wiesbaden, Germany); purchased R&D Systems (Wiesbaden, Germany)
T4 sequence (Q8IUN9 61-316 limits assumed): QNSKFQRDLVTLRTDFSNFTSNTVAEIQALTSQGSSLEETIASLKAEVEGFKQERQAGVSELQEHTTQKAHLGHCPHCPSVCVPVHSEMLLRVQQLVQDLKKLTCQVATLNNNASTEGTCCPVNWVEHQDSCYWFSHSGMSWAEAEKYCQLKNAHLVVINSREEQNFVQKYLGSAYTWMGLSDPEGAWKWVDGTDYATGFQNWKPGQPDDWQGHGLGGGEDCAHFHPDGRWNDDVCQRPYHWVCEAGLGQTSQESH
Experimental: as §1, §2, §3

rhCOLEC12 = molecular target: T5, rhCOLEC12 (Homo sapiens, UniProt Q5KU26); experiment: SPR binding to immobilized clearance receptor rhCOLEC12; conditions: 25 °C, 5 mM CaCl2, pH 7.4, FIGS. 9 and 10
T5 construct: The extracellular domains of receptor proteins were acquired from R&D Systems (Wiesbaden, Germany); purchased R&D Systems (Wiesbaden, Germany)
Experimental: as §1, §2, §3

rhSCARA5 = molecular target: T6, rhSCARA5 (Homo sapiens, UniProt Q6ZMJ2); experiment: SPR binding to immobilized clearance receptor rhSCARA5; conditions: 25 °C, 5 mM CaCl2, pH 7.4, FIGS. 9 and 10
T6 construct: The extracellular domains of receptor proteins were acquired from R&D Systems (Wiesbaden, Germany); purchased R&D Systems (Wiesbaden, Germany)
Experimental: as §1, §2, §3

rhASGPR [4] = molecular target: T1, rhASGPR; experiment: Solid-phase binding assay of multimeric VWF with rhASGPR; conditions: VWF 100 to 3 μg/mL, 1 hour at +37 °C; FIG. 12
Text: In addition to SPR-based interaction analysis with monomeric VWF, the interaction of multimeric VWF (purified from human plasma) with rhASGPR was investigated by using solid-phase binding assay. In addition, asialo-VWF (plasma derived VWF after treatment with α(2-3,6,8)-neuraminidase) was used as control.
Lyophilized rhASGPR (R&D Systems, Wiesbaden, Germany) was reconstituted and diluted in 0.05 M carbonate-bicarbonate buffer at pH 9.6, adsorbed onto high-adsorption 96-microwell plates at RT overnight, and subsequently washed with washing buffer (50 mM Tris, 150 mM NaCl, 5 mM CaCl2 and 0.1% (w/v) Tween-20 at pH 7.4). Afterwards, the wells were incubated for 1 hour with blocking solution (50 mM Tris, 150 mM NaCl, 5 mM CaCl2 and 2.5% (w/v) BSA at pH 7.4) in order to block non-specific binding, and then washed with washing buffer again. […] After washing the wells, associated VWF was subsequently detected by a commercial polyclonal rabbit anti-human VWF antibody conjugated with HRP (DakoCytomation, Glostrup, Denmark) that had been previously diluted 1:16,000 in dilution buffer. […] The reaction was stopped with stopping solution POD (Siemens Healthcare Diagnostics, Marburg, Germany) and the substrate reaction was photometrically monitored by measuring the difference in wave lengths at 450 nm and 620 nm.

T6 sequence (Q6ZMJ2 82-495 limits assumed): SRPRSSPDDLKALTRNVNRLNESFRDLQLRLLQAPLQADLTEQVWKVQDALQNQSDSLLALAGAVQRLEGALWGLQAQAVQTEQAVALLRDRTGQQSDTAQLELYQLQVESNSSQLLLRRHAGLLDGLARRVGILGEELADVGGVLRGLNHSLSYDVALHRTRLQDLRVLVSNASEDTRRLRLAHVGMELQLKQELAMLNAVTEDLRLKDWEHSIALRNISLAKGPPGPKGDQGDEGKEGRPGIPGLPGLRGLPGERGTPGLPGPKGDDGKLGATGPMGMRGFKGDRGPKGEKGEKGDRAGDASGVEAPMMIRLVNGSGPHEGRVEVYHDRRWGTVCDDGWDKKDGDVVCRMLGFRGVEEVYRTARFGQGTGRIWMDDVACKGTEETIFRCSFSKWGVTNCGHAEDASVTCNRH
T5 sequence (Q5KU26 59-742 limits assumed): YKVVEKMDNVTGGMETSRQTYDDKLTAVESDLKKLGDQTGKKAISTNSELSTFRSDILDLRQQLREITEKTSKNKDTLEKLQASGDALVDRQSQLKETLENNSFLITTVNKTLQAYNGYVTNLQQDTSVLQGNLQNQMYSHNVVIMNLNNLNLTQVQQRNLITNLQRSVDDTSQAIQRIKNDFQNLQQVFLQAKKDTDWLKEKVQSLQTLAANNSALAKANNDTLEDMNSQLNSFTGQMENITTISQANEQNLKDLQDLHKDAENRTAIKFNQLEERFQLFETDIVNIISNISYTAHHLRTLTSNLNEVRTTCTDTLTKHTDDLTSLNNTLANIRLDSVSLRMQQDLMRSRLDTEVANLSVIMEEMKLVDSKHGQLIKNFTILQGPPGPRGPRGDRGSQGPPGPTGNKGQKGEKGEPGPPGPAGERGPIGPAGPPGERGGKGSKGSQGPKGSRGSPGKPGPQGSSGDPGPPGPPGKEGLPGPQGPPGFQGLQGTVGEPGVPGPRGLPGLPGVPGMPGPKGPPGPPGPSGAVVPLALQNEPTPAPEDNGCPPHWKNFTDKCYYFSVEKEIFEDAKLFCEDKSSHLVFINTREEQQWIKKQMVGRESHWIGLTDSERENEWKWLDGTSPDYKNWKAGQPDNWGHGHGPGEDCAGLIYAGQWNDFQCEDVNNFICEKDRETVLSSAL

Compound | inhibition of interaction of pd VWF monomers with clearance receptors (clearance receptors) | inhibition of ASF binding to immobilized rhASGPR (rhASGPR [1]) | inhibition of binding of pd VWF multimers to clearance receptor candidates [2] | SPR binding to rhCLEC4M (rhCLEC4M) | SPR binding to rmCLEC4F (rmCLEC4F) | SPR binding to rhCLEC10A (rhCLEC10A) | SPR binding to rhCOLEC12 (rhCOLEC12) | SPR binding to rhSCARA5 (rhSCARA5) | other results
O=C[C@H](O)[C@@H](O)[C@@H](O)[C@H](O)CO [Gal, galactose] | inhibited | decreased binding; also recorded: inhibited binding | inhibited |  |  |  |  |  | 
VWF: purified VWF monomers (pd VWF after reduction with dithiothreitol and carboxymethylation with iodoacetamide) |  |  |  | bind efficiently | bind efficiently | bind efficiently | bind efficiently | bind efficiently | SPR binding to rhASGPR (rhASGPR [3]): bind efficiently
asialo-VWF multimers: plasma derived VWF after treatment with α(2-3,6,8)-neuraminidase, used as control |  |  |  |  |  |  |  |  | interaction with rhASGPR, solid-phase binding assay (rhASGPR [4]): interacted with rhASGPR
asialofetuin: bovine ASF (fetuin after the removal of terminal sialic acid residues), ligand blocking galactose receptors such as ASGPR |  |  | inhibited | bind efficiently | bind efficiently | bind efficiently | bind efficiently | bind efficiently | 
fetuin [reference compound] |  |  |  | almost not | almost not | almost not | almost not | almost not | SPR binding to rhASGPR (rhASGPR [3]): almost not
plasma derived VWF multimers: multimeric VWF purified from human plasma, native glycosylation structure without modifications |  |  |  |  |  |  |  |  | interaction with rhASGPR, solid-phase binding assay (rhASGPR [4]): interacted with rhASGPR; interaction of pd VWF multimers with clearance receptor candidates ([2]; according to Example 9): interact

The next lines start with results.

inhibition of interaction of pd VWF monomers with clearance receptors (clearance receptors) | Compound | inhibition of ASF binding to immobilized rhASGPR (rhASGPR [1]) | inhibition of binding of pd VWF multimers to clearance receptor candidates [2] | SPR binding to rhCLEC4M (rhCLEC4M) | SPR binding to rmCLEC4F (rmCLEC4F) | SPR binding to rhCLEC10A (rhCLEC10A) | SPR binding to rhCOLEC12 (rhCOLEC12) | SPR binding to rhSCARA5 (rhSCARA5) | other results
inhibited | C[C@H](O)[C@@H](O)[C@@H](O)[C@H](O)C=O [Fuc, fucose] | decreased binding; also recorded: inhibited binding | inhibited |  |  |  |  |  | 
inhibited | CC(=O)N[C@H]1C(O)O[C@H](CO)[C@H](O)[C@@H]1O (stereo partly drawn) [GalNac, N-acetylgalactosamine] | decreased binding; also recorded: inhibited binding | inhibited |  |  |  |  |  | 
